#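 Values below derive from 48-hour exposures of cells grown in 96-well plates, with endpoints linearly interpolated between the two concentrations bracketing the appropriate inhibition level. At the TGI there is no net growth.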
# Experiments:
# Test in all cases: growth of human tumour cells (NCI), 48 h
# [1] = tested on: HT29 colon
# [2] = tested on: NCI-H522 lung
# [3] = tested on: BT-549 breast
# [4] = tested on: HS 578T breast
# [5] = tested on: HCT-15 colon
# [6] = tested on: OVCAR-4 ovarian
# [7] = tested on: SK-OV-3 ovarian
# [8] = tested on: MALME-3M melanoma
# [9] = tested on: UO-31 renal
# [10] = tested on: SK-MEL-2 melanoma
# [11] = tested on: SNB-75 CNS
# [12] = tested on: OVCAR-8 ovarian
# [13] = tested on: MDA-MB-435
# [14] = tested on: 786-0 renal
# [15] = tested on: SK-MEL-5 melanoma
# [16] = tested on: CCRF-CEM leukemia
# [17] = tested on: MDA-MB-231 breast
# [18] = tested on: HOP-62 NSCLC
# [19] = tested on: UACC-257 melanoma
# [20] = tested on: NCI-H23 lung
# [21] = tested on: SF-539 CNS
# [22] = tested on: EKVX NSCLC
# [23] = tested on: HOP-92 NSCLC
# [24] = tested on: HCC-2998 colon
# [25] = tested on: OVCAR-5 ovarian
# [26] = tested on: SW-620 colon
# [27] = tested on: SN12C renal
# [28] = tested on: KM12 colon
# [29] = tested on: A549 NSCLC
# [30] = tested on: SR leukemia
# [31] = tested on: DU-145 prostate
# [32] = tested on: MCF7 breast
# [33] = tested on: TK-10 renal
# [34] = tested on: COLO 205 colon
# [35] = tested on: MOLT-4 leukemia
# [36] = tested on: SNB-19 CNS
# [37] = tested on: SF-295 CNS
# [38] = tested on: ACHN renal
# [39] = tested on: SF-268 CNS
# [40] = tested on: UACC-62 melanoma
# [41] = tested on: NCI/ADR-RES ovarian
# [42] = tested on: NCI-H226 lung
# [43] = tested on: U251 CNS
# [44] = tested on: M14 melanoma
# [45] = tested on: NCI-H460 lung
# [46] = tested on: RXF 393 renal
# [47] = tested on: HCT-116 colon
# [48] = tested on: IGROV1 ovarian
# [49] = tested on: CAKI-1 renal
# [50] = tested on: A498 renal
# [51] = tested on: SK-MEL-28 melanoma
# [52] = tested on: T-47D breast
# [53] = tested on: MDA-N
smiles,measurement,setting,value
CCC(=O)Oc1c2ccsc2c(OC(=O)CC)c2ccsc12,TGI,[1],5560 nM
same,TGI,[2],2060 nM
same,TGI,[3],361 nM
same,TGI,[4],1200 nM
same,TGI,[5],1070 nM
same,TGI,[6],2390 nM
same,TGI,[7],15800 nM
same,TGI,[8],140 nM
same,TGI,[9],1450 nM
same,TGI,[10],1390 nM
same,TGI,[11],341 nM
same,TGI,[12],1400 nM
same,TGI,[13],159 nM
same,TGI,[14],4330 nM
same,TGI,[15],216 nM
same,TGI,[16],9520 nM
same,TGI,[17],1270 nM
same,TGI,[18],2950 nM
same,TGI,[19],333 nM
same,TGI,[20],364 nM
same,TGI,[21],472 nM
same,TGI,[22],2510 nM
same,TGI,[23],3980 nM
same,TGI,[24],3490 nM
same,TGI,[25],3350 nM
same,TGI,[26],2330 nM
same,TGI,[27],1160 nM
same,TGI,[28],3340 nM
same,TGI,[29],4510 nM
same,TGI,[30],806 nM
same,TGI,[31],679 nM
same,TGI,[32],3430 nM
same,TGI,[33],5250 nM
same,TGI,[34],10600 nM
same,TGI,[35],> 100000 nM
same,TGI,[36],1580 nM
same,TGI,[37],675 nM
same,TGI,[38],5490 nM
same,TGI,[39],2290 nM
same,TGI,[40],439 nM
same,TGI,[41],832 nM
same,TGI,[42],4090 nM
same,TGI,[43],1650 nM
same,TGI,[44],305 nM
same,TGI,[45],3870 nM
same,TGI,[46],2690 nM
same,TGI,[47],1790 nM
same,TGI,[48],3650 nM
same,TGI,[49],6130 nM
same,TGI,[50],15000 nM
same,TGI,[51],353 nM
same,TGI,[52],3880 nM
same,TGI,[53],136 nM

# Reference: PubChem BioAssay (NCI)
